Test results from ChEMBL document CHEMBL2034876, “Diversity-Oriented Synthesis Yields a Novel Lead for the Treatment of Malaria” (ACS Med Chem Lett, 2012).
Values after ≈ are worked out from the molar mass of the structure shown.

Tested on: Plasmodium falciparum
Assay: Antimalarial activity against asexual blood stage form of Plasmodium falciparum Dd2 infected in human erythrocytes after 72 hrs by DAPI staining
Format: functional
Details: Dd2, 72 h

Row | SMILES | GI50 [µM]
1 | C[C@@H]1CN([C@@H](C)CO)C(=O)c2cc(N(C)C)ccc2O[C@@H](C)CCCCO[C@H]1CN(C)S(=O)(=O)c1ccc(F)cc1 | > 5
2 | CC(C)NC(=O)Nc1ccc2c(c1)C(=O)N([C@@H](C)CO)C[C@@H](C)[C@H](CN(C)S(=O)(=O)c1ccc(F)cc1)OCCCC[C@H](C)O2 | 0.4
3 | C[C@@H]1CN([C@@H](C)COC(=O)C(C)(C)C)C(=O)c2cc(NC(=O)Nc3ccccc3)ccc2O[C@@H](C)CCCCO[C@H]1CN(C)S(=O)(=O)c1ccc(F)cc1 | 0.0073
4 | C[C@@H]1CN([C@@H](C)CO)C(=O)c2cc(NC(=O)Nc3ccccc3)ccc2O[C@@H](C)CCCCO[C@H]1CN(C)S(=O)(=O)c1ccccc1F | 1.1
5 | C[C@@H]1CN([C@@H](C)COC(=O)c2ccccc2)C(=O)c2cc(NC(=O)Nc3ccccc3)ccc2O[C@@H](C)CCCCO[C@H]1CN(C)S(=O)(=O)c1ccc(F)cc1 | 0.015
6 | CNC[C@H](C)N1C[C@@H](C)[C@H](CN(C)S(=O)(=O)c2ccc(F)cc2)OCCCC[C@H](C)Oc2ccc(NC(=O)Nc3ccccc3)cc2C1=O | 0.079
7 | C[C@@H]1CN([C@@H](C)CO)C(=O)c2cc(NC(=O)Nc3ccccc3)ccc2O[C@@H](C)CCCCO[C@H]1CN(C)Cc1ccccc1 | 1.1
8 | COc1ccc(COCCN2C[C@@H](C)[C@H](CN(C)S(=O)(=O)c3ccc(F)cc3)OCCCC[C@H](C)Oc3ccc(NC(=O)Nc4ccccc4)cc3C2=O)cc1 | 0.055
9 | C[C@@H]1CN([C@@H](C)CO)C(=O)c2cc(NC(=O)Nc3ccccc3)ccc2O[C@@H](C)CCCCO[C@H]1CN(C)S(=O)(=O)c1cccnc1 | > 5
10 | COc1ccc(COC[C@H](C)N2C[C@@H](C)[C@H](CN(C)S(=O)(=O)c3ccc(F)cc3)OCCCC[C@H](C)Oc3ccc(NC(=O)Nc4ccccc4)cc3C2=O)cc1 | 0.00018
11 | COc1ccc(S(=O)(=O)N(C)C[C@@H]2OCCCC[C@H](C)Oc3ccc(NC(=O)Nc4ccccc4)cc3C(=O)N([C@@H](C)CO)C[C@H]2C)cc1 | 0.16
12 | COCCOC(=O)N(C)C[C@@H]1OCCCC[C@H](C)Oc2ccc(NC(=O)Nc3ccccc3)cc2C(=O)N([C@@H](C)CO)C[C@H]1C | > 5
13 | C[C@@H]1CN([C@@H](C)CO)C(=O)c2cc(NC(=O)Nc3ccccc3)ccc2O[C@@H](C)CCCCO[C@H]1CN(C)C(=O)c1ccccc1 | 2.6
14 | C[C@@H]1CN([C@@H](C)CO)C(=O)c2cc(NC(=O)Nc3ccccc3)ccc2O[C@@H](C)CCCCO[C@H]1CN(C)Cc1ccc(F)cc1 | 4.3
15 | C[C@@H]1CN([C@@H](C)CO)C(=O)c2cc(NC(=O)Nc3ccccc3)ccc2O[C@@H](C)CCCCO[C@H]1CN(C)C(=O)OC(C)(C)C | 1.4
16 | C[C@@H]1CN([C@@H](C)CO)C(=O)c2cc(Nc3nc4ccccc4o3)ccc2O[C@@H](C)CCCCO[C@H]1CN(C)S(=O)(=O)c1ccc(F)cc1 | 0.58
17 | C[C@@H]1CN(CCO)C(=O)c2cc(NC(=O)Nc3ccccc3)ccc2O[C@@H](C)CCCCO[C@H]1CN(C)S(=O)(=O)c1ccc(F)cc1 | 0.64
18 | COCOC[C@H](C)N1C[C@@H](C)[C@H](CN(C)S(=O)(=O)c2ccc(F)cc2)OCCCC[C@H](C)Oc2ccc(NC(=O)Nc3ccccc3)cc2C1=O | 0.0082
19 | C[C@@H]1CN([C@@H](C)CO)C(=O)c2cc(NC(=O)Nc3ccccc3)ccc2O[C@@H](C)CCCCO[C@H]1CN(C)C(=O)Oc1ccccc1 | > 5
20 | COc1ccc(COC[C@@H](C)N2C[C@@H](C)[C@H](CN(C)S(=O)(=O)c3ccc(F)cc3)OCCCC[C@H](C)Oc3ccc(NC(=O)Nc4ccccc4)cc3C2=O)cc1 | 0.036
21 | Cc1noc(C)c1NC(=O)Nc1ccc2c(c1)C(=O)N([C@@H](C)CO)C[C@@H](C)[C@H](CN(C)S(=O)(=O)c1ccc(F)cc1)OCCCC[C@H](C)O2 | 0.24
22 | C[C@@H]1CN([C@@H](C)CO)C(=O)c2cc(NC(=O)Nc3ccccc3)ccc2O[C@@H](C)CCCCO[C@H]1CN(C)S(=O)(=O)c1ccccc1 | 0.35
23 | C[C@@H]1CN([C@@H](C)CN)C(=O)c2cc(NC(=O)Nc3ccccc3)ccc2O[C@@H](C)CCCCO[C@H]1CN(C)S(=O)(=O)c1ccc(F)cc1 | 0.37
24 | C[C@@H]1CN([C@@H](C)CO)C(=O)c2cc(NS(=O)(=O)c3ccccc3)ccc2O[C@@H](C)CCCCO[C@H]1CN(C)S(=O)(=O)c1ccc(F)cc1 | 2.4
25 | C[C@@H]1CN([C@@H](C)CO)C(=O)c2cc(N)ccc2O[C@@H](C)CCCCO[C@H]1CN(C)S(=O)(=O)c1ccc(F)cc1 | 0.99
26 | C[C@@H]1CN([C@@H](C)CO)C(=O)c2cc(NC(=O)Nc3ccccc3)ccc2O[C@@H](C)CCCCO[C@H]1CN(C)S(=O)(=O)c1ccc(C(F)(F)F)cc1 | 0.877
27 | C[C@@H]1CN([C@@H](C)CN=[N+]=[N-])C(=O)c2cc(NC(=O)Nc3ccccc3)ccc2O[C@@H](C)CCCCO[C@H]1CN(C)S(=O)(=O)c1ccc(F)cc1 | 0.0032

Tested on: not listed separately
Assay: Aqueous solubility of the compound
Format: physicochemical
Details: water

Row | SMILES | solubility [µM]
28 | C[C@@H]1CN([C@@H](C)COC(=O)C(C)(C)C)C(=O)c2cc(NC(=O)Nc3ccccc3)ccc2O[C@@H](C)CCCCO[C@H]1CN(C)S(=O)(=O)c1ccc(F)cc1 | < 0.5
29 | C[C@@H]1CN([C@@H](C)CO)C(=O)c2cc(NC(=O)Nc3ccccc3)ccc2O[C@@H](C)CCCCO[C@H]1CN(C)C(=O)Oc1ccccc1 | 1.2 (≈ 0.776 µg/mL)

Target: T1, Dihydroorotate dehydrogenase (Plasmodium falciparum) (UniProt Q54A96)
T1 sequence (whole entry): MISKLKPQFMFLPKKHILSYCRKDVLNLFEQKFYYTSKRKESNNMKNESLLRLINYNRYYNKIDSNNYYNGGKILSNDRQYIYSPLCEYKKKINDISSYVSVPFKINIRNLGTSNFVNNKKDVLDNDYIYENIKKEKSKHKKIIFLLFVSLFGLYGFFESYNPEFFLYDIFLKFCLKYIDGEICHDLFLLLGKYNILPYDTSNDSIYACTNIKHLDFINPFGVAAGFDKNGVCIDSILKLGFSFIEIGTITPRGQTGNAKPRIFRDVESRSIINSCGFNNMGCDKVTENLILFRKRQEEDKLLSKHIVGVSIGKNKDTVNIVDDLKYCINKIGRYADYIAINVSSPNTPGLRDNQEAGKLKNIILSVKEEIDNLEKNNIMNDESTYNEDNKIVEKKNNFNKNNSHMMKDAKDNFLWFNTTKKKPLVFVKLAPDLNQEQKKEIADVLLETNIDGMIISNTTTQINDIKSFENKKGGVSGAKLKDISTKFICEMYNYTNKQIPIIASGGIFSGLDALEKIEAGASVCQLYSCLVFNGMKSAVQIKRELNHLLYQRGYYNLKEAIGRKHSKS
Assay: Inhibition of Plasmodium falciparum DHODH-mediated 2,6-dichloroindophenol reduction after 20 mins by spectrophotometry
Details: not given

Row | SMILES | INH [µM]
30 | C[C@@H]1CN([C@@H](C)CN(C)C)C(=O)c2cc(NC(=O)Nc3ccccc3)ccc2O[C@@H](C)CCCCO[C@H]1CN(C)S(=O)(=O)c1ccc(F)cc1 | > 30

Tested on: Plasmodium berghei
Assay: Inhibition of Plasmodium berghei DHODH-mediated 2,6-dichloroindophenol reduction after 20 mins by spectrophotometry
Details: not given

Row | SMILES | INH [µM]
31 | C[C@@H]1CN([C@@H](C)CN(C)C)C(=O)c2cc(NC(=O)Nc3ccccc3)ccc2O[C@@H](C)CCCCO[C@H]1CN(C)S(=O)(=O)c1ccc(F)cc1 | > 30

Tested on: Plasmodium vivax
Assay: Inhibition of Plasmodium vivax DHODH-mediated 2,6-dichloroindophenol reduction after 20 mins by spectrophotometry
Details: not given

Row | SMILES | INH [µM]
32 | C[C@@H]1CN([C@@H](C)CN(C)C)C(=O)c2cc(NC(=O)Nc3ccccc3)ccc2O[C@@H](C)CCCCO[C@H]1CN(C)S(=O)(=O)c1ccc(F)cc1 | > 30

Target: Dihydroorotate dehydrogenase (quinone), mitochondrial (Homo sapiens) (UniProt Q02127)
Assay: Inhibition of human DHODH-mediated 2,6-dichloroindophenol reduction after 20 mins by spectrophotometry
Details: not given

Sequence of Dihydroorotate dehydrogenase (quinone), mitochondrial (Homo sapiens) (Q02127 whole entry): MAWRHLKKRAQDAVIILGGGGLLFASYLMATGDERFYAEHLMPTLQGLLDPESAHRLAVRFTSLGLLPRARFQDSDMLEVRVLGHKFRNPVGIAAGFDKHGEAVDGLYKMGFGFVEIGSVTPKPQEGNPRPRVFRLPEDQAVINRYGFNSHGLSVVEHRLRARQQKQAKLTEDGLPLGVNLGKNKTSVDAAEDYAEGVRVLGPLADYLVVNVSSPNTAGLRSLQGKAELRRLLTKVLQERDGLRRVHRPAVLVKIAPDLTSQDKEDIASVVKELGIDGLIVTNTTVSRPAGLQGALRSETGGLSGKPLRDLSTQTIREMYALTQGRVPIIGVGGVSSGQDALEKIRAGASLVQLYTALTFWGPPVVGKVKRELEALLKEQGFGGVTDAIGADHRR

Row | SMILES | INH [µM]
33 | C[C@@H]1CN([C@@H](C)CN(C)C)C(=O)c2cc(NC(=O)Nc3ccccc3)ccc2O[C@@H](C)CCCCO[C@H]1CN(C)S(=O)(=O)c1ccc(F)cc1 | > 30
